Holding throughout (test): biochemical
What all share (format): biochemical

Experiment [1] addresses 363 human kinases (including Aurora A/B/C) (Homo sapiens, UniProt P11362). As to conditions: for remaining activity at 0.5 µM / remaining activity at 0.1 µM: read-out: % Enzyme Activity (relative to DMSO controls).
Excerpt: (§1) However, the Aurora A/B selectivity ratios derived from our in vitro and in vivo data can be compared to prioritize inhibitors.
Experiment [2] deals with T1, 363 human kinases (including Aurora A/B/C) (Homo sapiens, UniProt P21709).
T1 sequence (P21709 26-976): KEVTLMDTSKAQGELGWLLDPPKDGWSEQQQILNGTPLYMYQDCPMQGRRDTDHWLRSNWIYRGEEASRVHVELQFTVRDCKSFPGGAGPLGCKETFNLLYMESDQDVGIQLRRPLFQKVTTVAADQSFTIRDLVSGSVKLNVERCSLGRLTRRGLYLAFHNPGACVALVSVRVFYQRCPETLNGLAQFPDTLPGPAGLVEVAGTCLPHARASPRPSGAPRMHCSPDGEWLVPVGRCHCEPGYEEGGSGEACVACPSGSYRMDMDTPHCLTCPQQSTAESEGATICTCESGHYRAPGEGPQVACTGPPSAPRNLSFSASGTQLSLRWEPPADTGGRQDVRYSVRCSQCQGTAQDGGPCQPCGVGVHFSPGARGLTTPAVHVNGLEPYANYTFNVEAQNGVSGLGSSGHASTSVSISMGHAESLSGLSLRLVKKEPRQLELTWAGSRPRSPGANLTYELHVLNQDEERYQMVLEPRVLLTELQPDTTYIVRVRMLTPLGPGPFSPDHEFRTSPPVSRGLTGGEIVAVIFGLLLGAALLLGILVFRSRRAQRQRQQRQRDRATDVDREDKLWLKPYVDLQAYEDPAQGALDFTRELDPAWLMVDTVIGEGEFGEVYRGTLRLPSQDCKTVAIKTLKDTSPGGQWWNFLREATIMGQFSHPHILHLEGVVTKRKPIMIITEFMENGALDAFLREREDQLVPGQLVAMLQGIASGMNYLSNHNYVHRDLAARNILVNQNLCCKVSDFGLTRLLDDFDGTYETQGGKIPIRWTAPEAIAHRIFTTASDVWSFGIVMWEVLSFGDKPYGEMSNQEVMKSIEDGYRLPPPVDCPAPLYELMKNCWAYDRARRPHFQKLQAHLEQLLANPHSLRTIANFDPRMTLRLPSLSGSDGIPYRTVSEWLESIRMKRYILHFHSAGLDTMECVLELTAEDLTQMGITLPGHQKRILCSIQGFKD
Particulars: EPHA1, [ATP] 20 µM; for remaining activity at 0.5 µM / remaining activity at 0.1 µM: read-out: % Enzyme Activity (relative to DMSO controls); for remaining activity at 0.1 µM: 100 nM.
Excerpt: as §1

Experiment [3] deals with 363 human kinases (including Aurora A/B/C).
Excerpt: as §1
In experiment [4] the target is 363 human kinases (including Aurora A/B/C) (Homo sapiens, UniProt P16234). Particulars: PDGFRa; for remaining activity at 0.5 µM / remaining activity at 0.1 µM: read-out: % Enzyme Activity (relative to DMSO controls); for remaining activity at 0.1 µM: 100 nM.
Chain of 363 human kinases (including Aurora A/B/C) (Homo sapiens, UniProt P16234) (P16234 24-1089): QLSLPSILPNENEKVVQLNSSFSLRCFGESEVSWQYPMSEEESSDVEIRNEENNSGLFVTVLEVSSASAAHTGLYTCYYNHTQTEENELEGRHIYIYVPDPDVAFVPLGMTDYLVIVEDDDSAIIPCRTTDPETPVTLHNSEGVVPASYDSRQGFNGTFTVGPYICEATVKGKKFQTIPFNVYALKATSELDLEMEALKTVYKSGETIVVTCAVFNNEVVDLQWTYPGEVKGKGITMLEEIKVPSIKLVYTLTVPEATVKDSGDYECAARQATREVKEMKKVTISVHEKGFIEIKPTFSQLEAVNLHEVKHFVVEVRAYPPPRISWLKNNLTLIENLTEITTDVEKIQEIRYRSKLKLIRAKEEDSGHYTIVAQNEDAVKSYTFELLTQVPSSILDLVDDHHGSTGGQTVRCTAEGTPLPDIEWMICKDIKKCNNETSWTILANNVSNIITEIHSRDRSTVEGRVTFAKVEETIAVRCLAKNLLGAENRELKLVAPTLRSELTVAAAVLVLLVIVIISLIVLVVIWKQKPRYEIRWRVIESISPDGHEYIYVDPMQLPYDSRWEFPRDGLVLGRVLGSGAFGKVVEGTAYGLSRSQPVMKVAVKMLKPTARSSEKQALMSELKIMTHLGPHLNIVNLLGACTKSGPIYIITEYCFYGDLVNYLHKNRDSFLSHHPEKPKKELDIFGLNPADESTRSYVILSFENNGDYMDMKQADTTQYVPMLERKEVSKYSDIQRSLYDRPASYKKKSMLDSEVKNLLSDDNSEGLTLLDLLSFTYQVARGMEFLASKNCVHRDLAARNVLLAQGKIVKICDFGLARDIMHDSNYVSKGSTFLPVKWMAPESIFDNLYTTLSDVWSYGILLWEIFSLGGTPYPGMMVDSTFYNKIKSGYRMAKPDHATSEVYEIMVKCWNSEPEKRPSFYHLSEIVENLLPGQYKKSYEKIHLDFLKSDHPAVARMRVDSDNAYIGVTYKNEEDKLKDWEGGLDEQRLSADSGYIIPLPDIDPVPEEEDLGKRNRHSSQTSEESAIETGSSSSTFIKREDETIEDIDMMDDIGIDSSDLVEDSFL
Excerpt: as §1
For experiment [5], the target named is T2, 363 human kinases (including Aurora A/B/C) (Homo sapiens, UniProt O15530).
T2 sequence (O15530 1-556): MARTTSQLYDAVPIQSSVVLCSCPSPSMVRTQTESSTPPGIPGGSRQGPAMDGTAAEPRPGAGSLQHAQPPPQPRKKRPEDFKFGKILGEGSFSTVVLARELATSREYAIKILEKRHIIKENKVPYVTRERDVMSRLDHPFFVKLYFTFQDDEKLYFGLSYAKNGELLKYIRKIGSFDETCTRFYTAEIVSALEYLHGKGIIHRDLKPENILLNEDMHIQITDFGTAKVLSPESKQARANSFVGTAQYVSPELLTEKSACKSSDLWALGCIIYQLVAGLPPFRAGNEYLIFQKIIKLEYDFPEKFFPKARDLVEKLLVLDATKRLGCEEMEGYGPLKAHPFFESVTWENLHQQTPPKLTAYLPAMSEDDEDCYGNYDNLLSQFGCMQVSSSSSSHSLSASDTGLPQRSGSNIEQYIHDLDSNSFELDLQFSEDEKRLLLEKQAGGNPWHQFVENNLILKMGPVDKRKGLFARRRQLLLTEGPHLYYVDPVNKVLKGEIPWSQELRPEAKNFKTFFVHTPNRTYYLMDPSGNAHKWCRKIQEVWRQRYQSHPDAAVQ
As to conditions: PDK1/PDPK1; for remaining activity at 0.5 µM / remaining activity at 0.1 µM: read-out: % Enzyme Activity (relative to DMSO controls); for remaining activity at 0.1 µM: 100 nM.
Excerpt: as §1

For experiment [6], the target named is T3, 363 human kinases (including Aurora A/B/C) (Homo sapiens, UniProt Q9NRH2).
T3 sequence (Q9NRH2 1-765): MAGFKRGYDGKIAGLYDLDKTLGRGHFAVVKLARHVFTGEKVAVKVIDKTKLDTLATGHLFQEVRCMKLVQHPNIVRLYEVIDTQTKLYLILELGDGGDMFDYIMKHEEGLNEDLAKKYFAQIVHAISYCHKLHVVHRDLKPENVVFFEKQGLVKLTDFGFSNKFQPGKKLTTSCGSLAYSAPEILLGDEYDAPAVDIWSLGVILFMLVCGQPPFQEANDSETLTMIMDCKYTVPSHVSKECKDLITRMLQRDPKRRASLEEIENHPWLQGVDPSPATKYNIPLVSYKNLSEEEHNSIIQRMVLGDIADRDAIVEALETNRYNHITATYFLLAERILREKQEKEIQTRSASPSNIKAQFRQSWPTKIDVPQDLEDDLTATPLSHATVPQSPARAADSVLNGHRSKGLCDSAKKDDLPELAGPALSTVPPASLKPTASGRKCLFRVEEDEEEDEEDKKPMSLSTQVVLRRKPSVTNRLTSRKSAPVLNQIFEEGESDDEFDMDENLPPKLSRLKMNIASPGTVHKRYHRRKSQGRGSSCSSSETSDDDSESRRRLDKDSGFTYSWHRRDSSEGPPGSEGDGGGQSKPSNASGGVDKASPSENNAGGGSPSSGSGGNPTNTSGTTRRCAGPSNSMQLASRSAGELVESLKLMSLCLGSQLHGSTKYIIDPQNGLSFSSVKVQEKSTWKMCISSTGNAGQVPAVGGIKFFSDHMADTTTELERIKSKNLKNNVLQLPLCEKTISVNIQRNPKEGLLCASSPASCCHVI
Particulars: SNRK; for remaining activity at 0.5 µM / remaining activity at 0.1 µM: read-out: % Enzyme Activity (relative to DMSO controls); for remaining activity at 0.1 µM: 100 nM.
Excerpt: as §1

The target of experiment [7] is 363 human kinases (including Aurora A/B/C) (Homo sapiens, UniProt Q9H3Y6). As to conditions: SRMS; for remaining activity at 0.5 µM / remaining activity at 0.1 µM: read-out: % Enzyme Activity (relative to DMSO controls); for remaining activity at 0.1 µM: 100 nM.
Chain of 363 human kinases (including Aurora A/B/C) (Homo sapiens, UniProt Q9H3Y6) (Q9H3Y6 whole entry): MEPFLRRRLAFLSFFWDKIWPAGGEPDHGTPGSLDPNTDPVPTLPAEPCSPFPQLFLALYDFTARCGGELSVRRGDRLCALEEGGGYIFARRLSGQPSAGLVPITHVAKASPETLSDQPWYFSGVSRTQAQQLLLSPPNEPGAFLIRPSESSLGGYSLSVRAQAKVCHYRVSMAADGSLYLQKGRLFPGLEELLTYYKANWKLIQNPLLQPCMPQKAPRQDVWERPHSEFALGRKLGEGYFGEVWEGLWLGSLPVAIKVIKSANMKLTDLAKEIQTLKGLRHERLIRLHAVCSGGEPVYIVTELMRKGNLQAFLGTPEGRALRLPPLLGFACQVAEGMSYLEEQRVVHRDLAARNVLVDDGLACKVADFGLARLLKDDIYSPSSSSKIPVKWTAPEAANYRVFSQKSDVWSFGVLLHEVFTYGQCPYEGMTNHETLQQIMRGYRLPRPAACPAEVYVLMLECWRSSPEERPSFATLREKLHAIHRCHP
Excerpt: as §1

Each structure is given as a SMILES string. Values joined by “and” are separate entries in the source; they are usually repeats but may differ in a detail not shown here. Equal values may be shown once. Read-outs that look alike come from different tables or passages of the source.

Chain of 363 human kinases (including Aurora A/B/C) (Homo sapiens, UniProt P11362) (P11362 22-822): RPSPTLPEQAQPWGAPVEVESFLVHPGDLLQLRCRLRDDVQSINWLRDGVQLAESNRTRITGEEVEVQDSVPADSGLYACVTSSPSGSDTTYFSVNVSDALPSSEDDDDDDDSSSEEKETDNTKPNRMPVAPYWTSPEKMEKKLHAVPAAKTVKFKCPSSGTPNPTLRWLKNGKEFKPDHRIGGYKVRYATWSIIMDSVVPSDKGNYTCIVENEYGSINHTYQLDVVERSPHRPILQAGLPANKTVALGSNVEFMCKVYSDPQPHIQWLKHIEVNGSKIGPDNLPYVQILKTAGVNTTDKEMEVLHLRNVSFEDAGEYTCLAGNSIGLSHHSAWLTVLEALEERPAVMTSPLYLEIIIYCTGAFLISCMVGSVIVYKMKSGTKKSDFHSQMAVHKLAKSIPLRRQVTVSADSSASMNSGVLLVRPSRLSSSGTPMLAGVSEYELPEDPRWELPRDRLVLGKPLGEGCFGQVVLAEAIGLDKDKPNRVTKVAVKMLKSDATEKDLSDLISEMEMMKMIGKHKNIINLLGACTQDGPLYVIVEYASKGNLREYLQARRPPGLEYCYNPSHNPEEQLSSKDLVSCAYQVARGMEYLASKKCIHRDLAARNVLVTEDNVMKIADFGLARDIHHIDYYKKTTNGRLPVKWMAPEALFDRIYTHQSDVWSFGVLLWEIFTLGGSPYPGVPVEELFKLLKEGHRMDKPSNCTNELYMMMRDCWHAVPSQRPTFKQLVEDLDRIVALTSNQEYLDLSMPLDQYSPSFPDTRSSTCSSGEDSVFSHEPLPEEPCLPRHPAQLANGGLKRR

For the molecule `O=C(c1cccc(Cl)c1F)N1CCN(Cc2cccc(Nc3nccs3)n2)CC1` [MK-8745], the “% Enzyme Activity (relative to DMSO controls)” value in experiment [1] (FGFR1, [ATP] 5 µM, 500 nM) is 93.82%; in experiment [2] (500 nM), 58.24%; in experiment [3] (LYN B, 500 nM), 85.04% and 84.52%; in experiment [3] (PKCb2, 500 nM), 98.11% and 97.15%; in experiment [3] (PKG1b, 500 nM), 109.42% and 102.59%; in experiment [4] (500 nM), 99.66%. The “% Enzyme Activity (relative to DMSO controls)” value is given as 93.63% in experiment [5] (500 nM), 90.66% in experiment [6] (500 nM) and 96.62% in experiment [7] (500 nM). The remaining activity at 0.5 µM was 97.1% in experiment [1] (FGFR1, [ATP] 5 µM, 500 nM); 58.3% in experiment [2] (500 nM); 99.8% in experiment [4] (500 nM); 94.7% in experiment [5] (500 nM); 92.9% in experiment [6] (500 nM); 98.4% in experiment [7] (500 nM). The “Kinases inhibited at >65% of control” value in experiment [3] (500 nM) is listed as “Aurora A, AXL, BRK, DDR1, EphA6, GSK3α/β, IRAK1, JNK1, LKB1, ROS1, Trk A/B/C, TYRO3, YES”. Moreover, the “Number of kinases inhibited at >65% of control” value in experiment [3] (500 nM) is reported as 16 kinases.
For `CCn1cc(-c2ccnc3[nH]c(-c4cccc(CN(C)C)c4)cc23)c(-c2ccc(NC(=O)N(C)C)cc2)n1` [GSK1070916], the remaining activity at 0.1 µM is 60.2% in experiment [1]; 85.1% in experiment [2]; 94% in experiment [4]; 94% in experiment [5]; 89.8% in experiment [6]; 95% in experiment [7]. Also, the “Kinases inhibited ≥65% of control” value in experiment [3] (100 nM, 363 human kinases, [ATP] ~ Km(ATP)) was “Aurora A and B as well as DDR1”.
Consider `O=C(O)[C@]1(Cc2cccc(Nc3nccs3)n2)CC[C@@H](Oc2cccc(Cl)c2F)CC1` [MK-5108], for which the remaining activity at 0.1 µM in experiment [1] (FGFR1, [ATP] 5 µM, 100 nM) came to 61.8%; in experiment [2] it was 47.6%; in experiment [4], 97.1%; in experiment [5] it was 98.7%; in experiment [6], 95.3%; in experiment [7] it was 95.1%. The remaining activity at 0.5 µM in experiment [1] (FGFR1, [ATP] 5 µM, 500 nM) is 30.8%; in experiment [2] (500 nM) it was 19.1%; in experiment [4] (500 nM), 92.6%; in experiment [5] (500 nM) it was 88.8%; in experiment [6] (500 nM), 88.9%; in experiment [7] (500 nM), 94.8%. Further, in experiment [3], the “Number of kinases inhibited at >65% of control” value is listed as 75 kinases. For the same molecule, the “Number of kinases inhibited at >65% of control (including the Aurora kinases)” value in experiment [3] is 32 kinases.

For the origin of these results see paper PMC4685510, “A Cell Biologist’s Field Guide to Aurora Kinase Inhibitors” (Frontiers in Oncology, 2015).
